According to paper PMC10063231, “Human thymopoiesis produces polyspecific CD8^+ α/β T cells responding to multiple viral antigens” (eLife, 2023):

Test system: TCR identified as responding to the VMNILLQYV peptide (GAD 114-122 TCR)
Experiment: Response of a cloned GAD 114-122-reactive TCR in the reporter cell line to cognate and unrelated peptides
Type: cell-based, human
Conditions: cognate peptide versus structurally unrelated peptide, Figure 5D

Row | Sequence | Response of GAD 114-122 TCR in reporter cell line
1 | SLYNPAIVYA [peptide from human chondroitin sulfate N-acetylgalactosaminyltransferase 2] | responded even better
2 | VMNILLQYV [peptide from the Glutamic Acid Decarboxylase protein] | responding
